Series [1] can be described thus: MTT cytotoxicity on peritoneal macrophages. The series is classed as cell-based, mice. The note with it: male, C57bl/6j, mouse; 24 h incubation; read-out: MTT CC50 ± SE. On the procedure:
(§1) Peritoneal macrophages (PM) were isolated from the peritoneal exudate of 30 male C57bl/6j mice. To accumulate PM, 1 mL of 3% peptone solution was injected intraperitoneally. After 3 days, the mice were euthanized by cervical dislocation. Cells of peritoneal exudate were obtained by aseptic washing of the abdominal cavity with 5 mL of sterile Hanks’s solution (+4–6 °C) without calcium and magnesium ions. The total number and viability of cells were assessed in a Goryaev counting chamber (Russia) with a 0.4% trypan blue staining (Sigma-Aldrich, St. Louis, MO, USA). The cell concentration was adjusted to 1.0 × 10^6 cells/mL in DMEM (Gibco) supplemented with 2 mM L-glutamine (Gibco), 10% heat-inactivated fetal bovine serum (BioClot, Passau, Germany), 100 U/mL penicillin and […] streptomycin (Gibco) and plated 200 μL/well in 96-well transparent plates (SPL Life Sciences Co., Ltd., Pochon, Korea). After 2 h at 37 °C in a humidified atmosphere with 5% CO2, wells were washed to remove nonadherent cells. After 24 h of incubation, 20 μL of the supernatants were substituted with 20 μL of solutions of the test compounds, followed with E. coli O127:B8 LPS (100 ng/mL final concentration) after 30 min. Experiments were run in 3 independent replicates.
(§2) The activity of lactate dehydrogenase (LDH) in a cell culture medium served as a marker of membrane permeability and cell death. Aliquots of supernatants were taken after 24 h of inoculation with test compounds, mixed with 250 μL of […] NADH solution in 54 mM phosphate-buffered saline (pH 7.5). Then, 25 μL of a 6.48 mM pyruvate solution was added to the mixture. The optical density was followed at a wavelength of 340 nm for 20 min. The MTT test was performed 24 h after the incubation of cells with the tested compounds. Briefly, 20 μL of MTT solution was added to each well and incubated at 37 °C in a humidified atmosphere containing 5% CO2 for 4 h. The culture medium was aspirated, the cells were lysed and formazan crystals dissolved in 150 μL of DMSO. The plates were shaken at room temperature for 10 min, and the optical density was measured in a microplate reader Infinite M200 PRO (Tecan Group Ltd., Männedorf, Switzerland) at a wavelength of 565 nm.

The test system of series [2] is C57bl/6j peritoneal macrophages. As to the kind of experiment: MTT cytotoxicity on peritoneal macrophages. The series is classed as cell-based, mice. The note with it: Mus musculus, Peritoneal macrophage, read-out: EC50 ± SEM, C57bl/6j. On the procedure:
as §1, §2

Series [3] relates to human fibroblast cells (MRC-5). As to the kind of experiment: MTT test with human fibroblast cells. The series is classed as cell-based. The following applies: MRC5, 72 h, read-out: EC50 ± SEM, MRC-5. On the procedure: The studied compounds were added in concentrations of 1, 3, 6, 12, 25, 50, and 100 μM.
Human fibroblast cells (MRC-5) were used in this study. The cells were cultured in the DMEM medium that contained 10% embryonic calf serum in a CO2 incubator at 37 °C. The tested compounds were dissolved in DMSO and added to the cellular culture at the required concentrations. Three wells were used for each concentration. The cells that were incubated without the compounds were used as a negative control, and doxorubicin was used as the positive one. Cells were placed on 96-well microliter plates and cultivated at 37 °C in 5% CO2/95% air for 72 h. The cell viability was assessed through an MTT (3-(4,5-dimethylthiazol-2-yl)-2,5-phenyl-2H-tetrazolium bromide) conversion assay. A total of 1% MTT was added to each well. Three hours later, isopropanol was added and mixed for 15 min. Optical density (OD) of the samples was measured on a ThermoFischer multi-well spectrophotometer at a wavelength of 450 nm. […] The experimental results are given as average values obtained from three independently conducted experiments.

Another series concerns E. coli MG1655 pXen7. Kind of series: Constitutive lux-biosensor, general toxicity. The note with it: compound at 1 mM; decrease ascribed to shielding of bioluminescence. The series is classed as cell-based, Escherichia coli. On the procedure:
Importantly, all the studied compounds are poorly soluble in water and can form a suspension at 1 mM; moreover, compound 4a at concentrations above 100 μM presents a substance of dark color and is capable of the partial shielding of bioluminescence.
pColD-lux―PcolD is induced by the SOS response; pDps―Pdps is activated in the presence of DNA-oxidizing agents; pSoxS-lux―PSoxS is induced in the presence of superoxide anion radicals; pOxyR-lux―PoxyR is induced in response to the appearance of hydrogen peroxide or organic peroxides; pAlkA-lux―PalkA is induced in response to DNA alkylation. pXen7 contains P. luminescens ZM1 lux genes controlled by its own promoter, which was used as a constitutive.
The bioluminescence of cells was measured using a Synergy HT luminometer (Biotek, Winooski, VT, USA) at room temperature. Lux biosensors based on E. coli were grown to an early logarithmic phase (OD ≈ 0.1) to achieve a background luminescence approximately 100–1000 RLU at the beginning of the measurements. Lux biosensors based on B. subtilis were grown to a logarithmic phase with an optical density OD ≈ 0.6 (and background luminescence of about 10–500 RLU). Biosensor cell cultures were divided into portions of 200 μL in a 96-well plate. […] The kinetics of change in luminescence was measured at room temperature.

As a reminder, the CC50 is the concentration at which the toxic effect on the cells reaches its halfway point.

Regarding `[Se]=C(Nc1ccccc1)NC12CC3CC(CC(C3)C1)C2` [4a, 1-(Adamantan-1-yl)-3-phenylselenourea], the CC50 at 24 h in series [1] was found to be 7.5 ± 1.9 µM. Besides, the values for the EC50 in series [2] and in series [3] were 7.5 ± 1.9 µM and 3.38 ± 0.49 µM, respectively. In addition, in the series on E. coli MG1655 pXen7, the “luminescence decrease coefficient of the pXen7 biosensor” value is reported as 0.29 ± 0.08.

Values taken from PMC9501280, “Anti-Inflammatory Activity of Soluble Epoxide Hydrolase Inhibitors Based on Selenoureas Bearing an Adamantane Moiety” (International Journal of Molecular Sciences, 2022).
